Measured values taken from ChEMBL document CHEMBL5143564, “PES derivative PESA is a potent tool to globally profile cellular targets of PES” (Bioorg Med Chem Lett, 2022).

Columns and labels:
[1] = target: T1, Glutathione S-transferase omega-1 (Homo sapiens) (UniProt P78417); assay: Binding affinity to GSTO1 in human DOHH-2 cells measured after 6 hrs by pull-down assay; assay type: cell-based; details: DDE = dose-dependent effect
T1 sequence (whole entry): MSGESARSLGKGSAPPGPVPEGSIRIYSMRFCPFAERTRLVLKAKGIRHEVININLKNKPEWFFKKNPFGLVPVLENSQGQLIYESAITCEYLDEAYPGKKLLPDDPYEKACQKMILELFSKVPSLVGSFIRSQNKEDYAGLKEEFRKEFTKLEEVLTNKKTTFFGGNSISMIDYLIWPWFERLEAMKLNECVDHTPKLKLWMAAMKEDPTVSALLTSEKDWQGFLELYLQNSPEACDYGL

[2] = target: T2, Protein disulfide-isomerase A3 (Homo sapiens) (UniProt P30101); assay: Binding affinity to PDIA3 in human MDA-MB-453 cells measured after 6 hrs by pull-down assay; assay type: cell-based; details: dose <= 20.0 µM, DDE = dose-dependent effect
T2 sequence (whole entry): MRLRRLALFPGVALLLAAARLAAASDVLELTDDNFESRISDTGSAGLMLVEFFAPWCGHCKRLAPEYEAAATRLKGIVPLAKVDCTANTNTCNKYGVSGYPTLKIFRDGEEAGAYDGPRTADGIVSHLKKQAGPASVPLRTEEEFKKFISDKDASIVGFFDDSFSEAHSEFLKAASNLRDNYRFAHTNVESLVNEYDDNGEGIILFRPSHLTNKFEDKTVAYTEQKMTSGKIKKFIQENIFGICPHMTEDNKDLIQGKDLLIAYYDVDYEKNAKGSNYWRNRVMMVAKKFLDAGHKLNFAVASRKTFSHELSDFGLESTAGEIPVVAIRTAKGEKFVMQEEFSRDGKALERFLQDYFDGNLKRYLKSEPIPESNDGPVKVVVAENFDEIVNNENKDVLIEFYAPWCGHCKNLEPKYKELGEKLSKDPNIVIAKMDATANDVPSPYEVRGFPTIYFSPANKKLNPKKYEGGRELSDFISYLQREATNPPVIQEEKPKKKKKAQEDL

Activity [1]: Dde
Activity [2]: Dde
SMILES: C#Cc1cccc(C#CS(N)(=O)=O)c1
